Source: US6790629B2 (The Regents of the University of California, priority 1997, dated 2004)

Columns and labels:
[1] = target: T1, VR1 (Rattus norvegicus, UniProt O35433); assay: Whole-cell two-electrode voltage clamp of VR1-expressing Xenopus oocytes (vanilloid agonists and antagonists); format: cell-based; details: for recovery of current response following agonist removal: washout; for Hill coefficient: from agonist concentration-response analysis in VR1-expressing oocytes
T1 construct: open reading frame encoding a protein of 838 amino acids; expressed in transfected cells; host or cells: Xenopus laevis oocytes injected with VR1 cRNA
T1 sequence (O35433 whole entry): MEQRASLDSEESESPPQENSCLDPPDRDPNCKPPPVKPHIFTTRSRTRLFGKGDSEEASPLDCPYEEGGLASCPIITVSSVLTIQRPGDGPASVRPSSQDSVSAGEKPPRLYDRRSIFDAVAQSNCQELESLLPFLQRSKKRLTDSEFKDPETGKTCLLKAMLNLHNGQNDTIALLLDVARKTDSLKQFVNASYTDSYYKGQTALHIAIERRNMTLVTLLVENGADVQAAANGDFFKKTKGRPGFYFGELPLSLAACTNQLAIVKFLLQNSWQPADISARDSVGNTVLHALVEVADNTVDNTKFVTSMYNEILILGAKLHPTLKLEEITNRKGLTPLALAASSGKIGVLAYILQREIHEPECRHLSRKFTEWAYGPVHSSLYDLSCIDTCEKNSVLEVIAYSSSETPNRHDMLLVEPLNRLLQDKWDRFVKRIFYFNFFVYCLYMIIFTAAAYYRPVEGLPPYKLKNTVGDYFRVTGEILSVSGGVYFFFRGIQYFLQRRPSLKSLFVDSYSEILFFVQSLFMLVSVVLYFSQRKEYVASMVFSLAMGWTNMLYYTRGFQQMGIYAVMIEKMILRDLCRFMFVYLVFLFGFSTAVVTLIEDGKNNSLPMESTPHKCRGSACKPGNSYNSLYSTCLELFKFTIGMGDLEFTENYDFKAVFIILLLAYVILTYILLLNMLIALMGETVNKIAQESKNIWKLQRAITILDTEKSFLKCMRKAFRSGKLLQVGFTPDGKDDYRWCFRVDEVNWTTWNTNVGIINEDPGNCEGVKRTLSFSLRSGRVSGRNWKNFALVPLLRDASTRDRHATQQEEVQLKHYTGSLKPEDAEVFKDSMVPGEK
Description: Briefly, cRNA transcripts were synthesized from Not1-linearized VR1 cDNA templates using T7 RNA polymerase 17. Defolliculated Xenopus laevis oocytes were injected with 0.5-5 ng VR1 cRNA. Four to seven days after injection, two electrode voltage clamp recording was performed (Ehold=−60 mV for IC50 curve and thermal stimulation experiments, and […] for all other experiments) using a Geneclamp 500 amplifier (Axon Instruments) and a MacLab A/D converter (Maclab). The recording chamber was perfused at a rate of 2 ml/min with frog ringers solution containing (mM) 90 NaCl; 1.0 KCl, 2.4 NaHCO3, 0.1 BaCl2, 1.0 MgCl2, and 10 HEPES, pH 7.6. at room temperature. Prior to performing the store-operated current assays, oocytes were incubated for 1-2 hrs in calcium-free, barium-free frog ringers solution containing 1 mM EGTA and 1 μM Thapsigargin. During voltage clamp recording, these oocytes were intermittently exposed to frog ringer's solution containing 2 mM Ca2+ and no EGTA to detect calcium-dependent currents (15 second pulses at 2 minute intervals) (Petersen et al. 1995 Biochem J. 311:4144).
VR1 was expressed in Xenopus oocytes as described above (Example 3), except that CaCl2 (2 mM) was used in place of BaCl2 when generating the capsazepine inhibition curve. […] Membrane currents were recorded in the whole cell voltage clamp configuration (Vhold=−40 mV).

[2] = target: T1, VR1; assay: Hydrogen ion potentiation of capsaicin response in VR1-expressing oocytes; format: cell-based; details: 10 μM capsaicin
Excerpt: To address this possibility, the effects of hydrogen ions on the cloned vanilloid receptor were examined using the oocyte expression system. […] The pH of the bath solution was changed during the experiment (as indicated by the horizontal bars in FIG. 13).

[3] = target: T2, VRRP-1 (Rattus norvegicus, UniProt Q9WUD2); assay: Activation of VRRP-1 by capsaicin
T2 sequence (Q9WUD2 1-761): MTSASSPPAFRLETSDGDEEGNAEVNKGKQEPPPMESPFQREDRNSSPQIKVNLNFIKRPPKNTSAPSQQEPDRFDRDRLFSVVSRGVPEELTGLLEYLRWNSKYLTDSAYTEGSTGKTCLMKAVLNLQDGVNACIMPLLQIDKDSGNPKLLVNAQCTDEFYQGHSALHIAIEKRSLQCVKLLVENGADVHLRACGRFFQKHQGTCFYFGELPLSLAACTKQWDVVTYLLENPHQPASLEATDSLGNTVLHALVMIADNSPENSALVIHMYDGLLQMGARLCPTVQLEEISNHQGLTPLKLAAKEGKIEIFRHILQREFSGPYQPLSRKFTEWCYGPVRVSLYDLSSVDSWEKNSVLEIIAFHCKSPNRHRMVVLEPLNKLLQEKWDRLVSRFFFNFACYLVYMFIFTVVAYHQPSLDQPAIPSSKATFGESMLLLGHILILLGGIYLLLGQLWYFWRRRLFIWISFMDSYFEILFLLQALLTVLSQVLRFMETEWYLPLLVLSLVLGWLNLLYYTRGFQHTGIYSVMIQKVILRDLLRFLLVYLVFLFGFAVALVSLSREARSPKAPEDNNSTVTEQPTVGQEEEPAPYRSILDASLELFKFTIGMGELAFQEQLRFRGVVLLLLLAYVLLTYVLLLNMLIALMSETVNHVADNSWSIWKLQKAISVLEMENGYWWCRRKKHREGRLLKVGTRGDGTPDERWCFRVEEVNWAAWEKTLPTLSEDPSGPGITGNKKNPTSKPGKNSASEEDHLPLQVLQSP

[4] = target: T1, VR1; assay: Whole-cell patch clamp of VR1-transfected HEK293 cells, desensitization of capsaicin-evoked current; format: cell-based
Description: Patch-clamp recordings were carried out with transiently transfected HEK293 cells at 22° C. Standard bath solution for whole-cell recordings contained (mM) 140 NaCl, 5 KCl, 2 MgCl2, 2 CaCl2, 10 HEPES, 10 glucose, pH 7.4 (adjusted with NaOH). In calcium-free bath solution, CaCl2 was removed and 5 mM EGTA was added.
Bath solution for outside-out patch recordings and pipette solution for inside-out patch recordings contained (mM) 140 NaCl, 10 HEPES, pH 7.4 (adjusted with NaOH). Bath solution for inside-out patch recordings and pipette solutions for outside-out patch recordings and ion substitution experiments contained: (mM) 140 NaCl, 10 HEPES, 5 EGTA, pH 7.4 (adjusted with NaOH). Pipette solution for whole-cell recordings contained (mM) 140 CsCl (or 130 CsAspartate and 10 NaCl), 5 EGTA, 10 HEPES, pH 7.4 (adjusted with CsOH).
Whole-cell recording data were sampled at 20 kHz and filtered at 5 kHz for analysis (Axopatch 200 amplifier with pCLAMP software, Axon Instruments). Single-channel recording data were sampled at 10 kHz and filtered at 1 kHz. Permeability ratios for monovalent cations to Na (PX/PNa) were calculated as follows:

[5] = tested on: chick orthologue of rat VR1 (pCVR2); assay: Electrophysiological and calcium-imaging analysis of HEK293 cells transfected with pCVR2; format: cell-based
[6] = tested on: water-injected oocytes; assay: Two-electrode voltage clamp of water-injected control oocytes: capsaicin, heat, heat plus ruthenium red; format: cell-based, Xenopus
Description: (§1) To determine whether VR1 could mediate similar responses to heat in a different cellular environment, heat activation of VR1 was tested in the oocyte system. Oocytes injected with either VR1 cRNA or water were subjected to two-electrode voltage-clamp (Vhold=−60 mV) while the temperature of the perfusing buffer was raised from 22.7° C. to the level indicated, then held constant for 60 sec. (VR1, n =8; water, n=6 independent cells). The asterisk indicates a significant difference from water-injected oocytes (T-test, P<0.0005).
(§2) The current tracings shown in FIG. 17 were generated from representative VR1- or water-injected oocytes (Vhold=−60 mV) during successive applications of the indicated stimuli.

[7] = target: T1, VR1; assay: Two-electrode voltage clamp of VR1-injected oocytes: capsaicin, heat, heat plus ruthenium red; format: cell-based; details: n=5; for mean inward current response ± s.e.m.: Vhold=-60 mV
Description: as §1, with “cells).” for “cells). The asterisk indicates a significant difference from water-injected oocytes (T-test, P<0.0005).”
as §2

COc1ccc(CCCOC(Cn2ccnc2)c2ccc(OC)cc2)cc1 (centres unmarked) [SKF 96365]
effect on capsaicin-evoked currents ([1]; SKF 96365 20 μM, VR1-expressing oocytes): no effect

COc1cc(CNC(=O)CCCC/C=C/C(C)C)ccc1O [capsaicin]
effect of reduced pH on capsaicin response [2]: did not augment | activation of VRRP-1 [3]: does not appear to be activated | decrease of response between first and third applications ([4]; absence of extracellular calcium, n=3): 4.7±2.3% | decrease of response between first and third applications (desensitizing component) ([4]; calcium-containing bath solution, n=5): 87±4.3% | recovery of current response following agonist removal ([1]; VR1-expressing oocytes): returned rapidly to baseline | Hill coefficient [1]: 2.08 | response of the encoded protein ([5]; capsaicin): not to capsaicin | response to capsaicin [6]: no response | mean inward current response ± s.e.m. ([7]; capsaicin 1 μM): 1221±148 nA

Oc1cc2c(cc1O)CN(C(=S)NCCc1ccc(Cl)cc1)CCC2 [capsazepine]
IC50 ([1]; VR1-expressing oocytes, CaCl2 2 mM in place of BaCl2, read-out: IC50, block of capsaicin-evoked responses): 283 nM | antagonism of responses to resiniferatoxin (50 nM) ([1]; capsazepine 5 μM): reversibly antagonized | block of capsaicin activity (cap; 0.6 μM) ([1]; capsazepine 10 μM): reversible

C=C(C)[C@]12C[C@@H](C)[C@@]34O[C@](Cc5ccccc5)(O[C@@H]1[C@@H]3C=C(COC(=O)Cc1ccc(O)c(OC)c1)C[C@]1(O)C(=O)C(C)=C[C@@H]41)O2 [resiniferatoxin]
EC50 [1]: 39.1 nM | potency relative to capsaicin ([1]; EC50 comparison in VR1-expressing oocytes): approximately 20 fold | recovery of current response following agonist removal ([1]; VR1-expressing oocytes): often failed to recover | Hill coefficient [1]: 1.95 | response of the encoded protein ([5]; high doses of resiniferatoxin): responds

N.N.N.N.N.N.N.N.N.N.N.N.N.N.[Cl-].[Cl-].[Cl-].[Cl-].[Cl-].[Cl-].[O-2].[O-2].[Ru+3].[Ru+3].[Ru+4] [ruthenium red]
antagonism of responses to resiniferatoxin (50 nM) ([1]; ruthenium red 10 μM): reversibly antagonized | block of capsaicin-evoked responses (cap; 0.6 μM) ([1]; ruthenium red 10 μM): blocked capsaicin-evoked responses | inhibition of heat response ([6]; ruthenium red 10 μM, n=5): 21±26% | mean inward current response ± s.e.m. ([7]; heat (50° C.) plus ruthenium red 10 μM): 243±47 nA | inhibition of heat response ([7]; ruthenium red 10 μM, heat 50° C., VR1-injected oocytes): 88±2%
